{
  "source": "patent US20240009323A1",
  "about": "“METHODS OF TREATING COLON CANCER USING NANOPARTICLE MTOR INHIBITOR COMBINATION THERAPY” (Abraxis BioScience, LLC, priority 2017, published 2024)",
  "origin": "cited, not measured here",
  "key": {"[1]": {"conditions": "in vivo"}},
  "data": [
    {"smiles": "COc1ccc(COc2cc3oc(=O)c4cc(C(C)O)ccc4c3cc2OC)cc1", "note": "(centres unmarked) [Palomid 529]", "values": [
      {"measurement": "brain penetration", "setting": "[1]", "result": "good brain penetration"},
      {"measurement": "affinity for ABCB1/ABCG2", "setting": "ABCB1/ABCG2", "result": "lacks affinity"}
    ]}
  ]
}
